Data from patent US20070093460A1, “Methods of using selective 11beta-HSD inhibitors to treat gluocorticoid associated states” (priority 2005, published 2007).
“Also recorded” adds a separate entry of the source. Like-named read-outs stand apart in the source and are kept apart here.

Assays:
[1] = biological target: T1, 11β-HSD1 Dehydrogenase (Rattus norvegicus, UniProt P16232); experiment: Table 1: inhibition of 11β-HSD1 dehydrogenase; format: biochemical; conditions: Table 1, inhibition in words
T1 sequence (P16232 whole entry): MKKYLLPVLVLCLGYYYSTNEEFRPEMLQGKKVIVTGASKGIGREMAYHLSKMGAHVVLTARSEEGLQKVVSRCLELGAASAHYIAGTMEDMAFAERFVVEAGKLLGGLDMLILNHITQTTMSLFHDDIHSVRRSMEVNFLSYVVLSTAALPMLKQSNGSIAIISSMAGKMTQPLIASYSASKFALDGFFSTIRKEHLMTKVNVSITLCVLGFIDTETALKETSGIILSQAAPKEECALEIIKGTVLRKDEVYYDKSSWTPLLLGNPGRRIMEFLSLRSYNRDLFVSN

[2] = biological target: T2, 11β-HSD1 Reductase (Rattus norvegicus, UniProt P16232); experiment: Table 1: inhibition of 11β-HSD1 reductase; format: biochemical; conditions: Table 1, inhibition in words
T2 sequence (P16232 whole entry): as above

[3] = biological target: T1, 11β-HSD1 Dehydrogenase; experiment: 11β-HSD1 dehydrogenase assay in rat Leydig cell homogenates; format: biochemical; design: Freshly prepared rat Leydig cell homogenates were chosen since they provide a rich and reliable source of both 11β-HSD1 dehydrogenase and reductase; from tissue; host or cells: rat testicular Leydig cells, homogenate; conditions: for inhibitors of 11β-HSD1 dehydrogenase (summary in words): summary of the screening;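 on all read-outs here: tritiated corticosterone conversion by 11β-HSD1 dehydrogenase in Leydig homogenates with 3 mM NADP at pH 8.4, 37 °C for 10 min, products resolved by HPLC, inhibition relative to uninhibited enzyme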
Protocol: (§1) Each enzyme reaction (described below) was stopped by adding 750 μL MeOH. After centrifugation, an aliquot of supernatant was analyzed by HPLC using a DuPont Zorbax C8 column.
(§2) 11β-HSD1 dehydrogenase was assayed by incubating homogenates (13,000 cells equivalent) with 600 nM [^3H]-B (0.5 μCi) in the presence of 3 mM NADP, 50 mM Tris-HCl; pH 8.4 at 37° C. for 10 minutes in a total volume of 250 μL. 11β-HSD1 reductase was assayed by incubating homogenates (52,000 cells equivalent) with 600 nM [^3H]-11-dehydro-corticosterone in presence of 3 mM NADPH, 50 mM Tris-HCl; pH 7.4 at 37° C. for 20 minutes in a total volume of 250 μL.
(§3) Each concentration was tested in triplicate and the dose response curve, showing percentage inhibition versus log concentration of steroid was plotted. The data fitted a log-linear straight line.

[4] = biological target: T2, 11β-HSD1 Reductase; experiment: 11β-HSD1 reductase assay in rat Leydig cell homogenates; conditions: for inhibitors of 11β-HSD1 reductase (summary in words): summary of the screening;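 on all read-outs here: rat Leydig cell homogenate incubated 20 min at 37 °C, pH 7.4, with tritiated 11-dehydro-corticosterone and 3 mM NADPH, product measured by HPLC, inhibition from triplicate dose–response curves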
Protocol: as §1, §2, §3

[5] = biological target: T3, 11β-HSD2 (Ovis aries, UniProt P50168); experiment: 11β-HSD2 enzyme activity in sheep kidney microsomes; format: biochemical
T3 construct: incubating sheep kidney microsomal fraction (6.5 μg protein) with 50 nM corticosterone; from tissue; host or cells: sheep kidney microsomal fraction
T3 sequence (P50168 1-427): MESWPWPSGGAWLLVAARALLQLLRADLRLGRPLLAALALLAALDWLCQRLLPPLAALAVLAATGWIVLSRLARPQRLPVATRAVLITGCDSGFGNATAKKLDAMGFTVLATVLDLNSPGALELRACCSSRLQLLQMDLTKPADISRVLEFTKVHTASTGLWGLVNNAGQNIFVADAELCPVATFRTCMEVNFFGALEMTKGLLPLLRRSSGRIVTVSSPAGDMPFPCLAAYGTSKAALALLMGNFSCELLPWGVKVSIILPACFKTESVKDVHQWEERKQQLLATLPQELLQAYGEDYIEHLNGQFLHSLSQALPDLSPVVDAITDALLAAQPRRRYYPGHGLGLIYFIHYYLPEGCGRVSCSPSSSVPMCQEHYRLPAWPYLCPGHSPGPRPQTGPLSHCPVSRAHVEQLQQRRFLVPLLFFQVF
Excerpt: The enzymatic reaction was termninated by addition of methanol and synthesis of 11-dehydro-corticosterone was quantitated by HPLC as described above.

[6] = biological target: T4, 11β-HSD2 Dehydrogenase (Ovis aries, UniProt P50168); experiment: Table 1: inhibition of 11β-HSD2 dehydrogenase; format: biochemical; conditions: Table 1, inhibition in words
T4 sequence (P50168 1-427): T3 sequence (P50168 1-427)

[7] = rat Leydig cell homogenates, 600 nM corticosterone, NADP, corticosteroid series
[8] = rat Leydig cell homogenates, 600 nM corticosterone, NADP, corticosteroid series, read-out: Leydig Cell 11β-HSD1 Dehydrogenase [S]= 600 nM
[9] = rat Leydig cell homogenates, 600 nM 11-dehydro-corticosterone, NADPH, corticosteroid series
[10] = read-out: Leydig Cell 11β-HSD1 Reductase [S]= 600 nM, rat Leydig cell homogenates, 600 nM 11-dehydro-corticosterone, NADPH, corticosteroid series
[11] = 11β-HSD2, sheep kidney microsomes, 50 nM corticosterone, NAD+, aldosterone, cortisol, corticosterone series
[12] = 11β-HSD2, sheep kidney microsomes, 50 nM corticosterone, NAD+, aldosterone, cortisol, corticosterone series, read-out: Dehydrogenase [S] = 50 nM
[13] = rat Leydig cell homogenates, 600 nM corticosterone, progesterone and androgen derivatives, read-out: Leydig Cell 11β-HSDl Dehydrogenase [S] = 600 nM
[14] = read-out: Leydig Cell 11β-HSD1 Reductase [S] = 600 nM, rat Leydig cell homogenates, 600 nM 11-dehydro-corticosterone, progesterone and androgen derivatives

SMILES	11β-HSD1 Dehydrogenase [1]	11β-HSD1 Reductase [2]	IC50 [4] [µM]	Leydig Cell 11β-HSD1 Dehydrogenase [S]= 600 nM [3, 7]	IC50 [3, 8] [µM]	Leydig Cell 11β-HSD1 Reductase [S]= 600 nM [4, 9]	IC50 [5, 12] [µM]	further results
C[C@]12CC[C@@H](O)C[C@H]1CC[C@@H]1[C@H]2C(=O)C[C@]2(C)[C@@H](O)CC[C@@H]12 [3α,5α-reduced-11-keto-testosterone]	No Inhibition	Selective Inhibitor	–	–	–	–	–	–
C[C@]12CC[C@@H](O)C[C@@H]1CC[C@@H]1[C@@H]2[C@@H](O)C[C@]2(C)C(=O)CC[C@@H]12 [11β-OH-androsterone, 5α-Androstan-3ct,11β-diol-17-one]	–	–	> 100	–	–	–	–	IC50 [3]: > 100 µM; IC50 [5]: > 10 µM
C[C@]12CC[C@@H](O)C[C@H]1CC[C@H]1[C@@H]3CC[C@H](C(=O)CO)[C@@]3(C)CC(=O)[C@@H]12 [3α,5β-TH- 11 -dehydro-corticosterone, 5β-Pregnan-3α,21-diol-11,20-dione]	–	–	–	inactive	> 100	inactive	> 10	IC50 [4, 10]: > 100 µM; Dehydrogenase [S] = 50 nM [5, 11]: inactive
C[C@]12CC[C@@H](O)C[C@H]1CC[C@@H]1[C@@H]2C(=O)C[C@@]2(C)[C@H]1CC[C@]2(O)C(=O)CO [3α,5β-TH-Cortisone, 5β-Pregnan-3α, 17α,21-triol-11,20-dione]	–	–	60	–	> 100	–	–	–
C[C@]12CC[C@@H](O)C[C@H]1CC[C@@H]1[C@H]2[C@@H](O)C[C@]2(C)[C@@H](C(=O)CO)CC[C@@H]12 [3α,5α-TH-Corticosterone, 5α-Pregnan-3α,11β,21-triol-20-one]	Potent Inhibitor	No Inhibition	–	–	1.3	weak inhibitor	0.26	inhibitors of 11β-HSD1 dehydrogenase (summary in words) [3]: potent inhibitors; also recorded: high potency; inhibitors of 11β-HSD2 (summary in words) ([5]; summary of the screening): potent inhibitors; also recorded: high potency; 11β-HSD2 Dehydrogenase [6]: Potent Inhibitor
C[C@]12CC[C@@H](O)C[C@H]1CC[C@@H]1[C@@H]2[C@@H](O)C[C@]2(C=O)[C@@H](C(=O)CO)CC[C@@H]12 [3α,5β-TH-Aldosterone, 5β-Pregnan-3α,11β,21-triol-20-one-18-al]	–	–	–	inactive	> 100	inactive	> 10	IC50 [4, 10]: > 100 µM; Dehydrogenase [S] = 50 nM [5, 11]: inactive
C[C@]12CC[C@@H](O)C[C@@H]1CC[C@@H]1[C@@H]2[C@@H](O)C[C@]2(C)[C@@H](O)CC[C@@H]12 [11β-OH-androstanediol, 5α-Androstan-3α,11β,17β-triol]	–	–	11.5	–	–	–	–	IC50 [3]: 5 µM; inhibitors of 11β-HSD1 dehydrogenase (summary in words) [3]: potent inhibitors; also recorded: high potency; IC50 [5]: 4.5 µM
C[C@]12CC[C@@H](O)C[C@@H]1CC[C@@H]1[C@@H]2[C@@H](O)C[C@@]2(C)[C@H]1CC[C@]2(O)C(=O)CO [3α,5α-TH-Cortisol, 5α-Pregnan-3α,11β,17α,21-tetrol-20-one]	–	–	> 100	inactive	14	inactive	8	–
C[C@]12CCC(=O)C=C1CC[C@@H]1[C@@H]2[C@@H](O)C[C@]2(C=O)[C@@H](C(=O)CO)CC[C@@H]12 [Aldosterone, 4-Pregnen-11,21-diol-3,20-dione-18-al, reference compound]	–	–	> 100	inactive	> 100	inactive	> 10	Dehydrogenase [S] = 50 nM [5, 11]: inactive
CC(=O)[C@H]1CC[C@@H]2[C@@H]3CCC4=CC(=O)CC[C@]4(C)[C@@H]3[C@@H](O)C[C@]12C [11β-OH-Progesterone, 4-Pregnen-11β-ol-3,20-dione]	Potent Inhibitor (Non-Selective)	No Inhibition	> 100	–	–	–	–	IC50 [3, 13]: 5.6 µM; inhibitors of 11β-HSD1 dehydrogenase (summary in words) [3]: potent inhibitors; also recorded: high potency; inhibitors of 11β-HSD1 dehydrogenase (summary in words) ([3]; listed as 11β-hydroxy-progesterone): potently inhibit; Leydig Cell 11β-HSD1 Reductase [S]= 600 nM ([4]; rat Leydig cell homogenates, 600 nM 11-dehydro-corticosterone, progesterone and androgen derivatives): inactive
C[C@H](CCC(=O)O)[C@H]1CC[C@H]2[C@@H]3[C@H](O)C[C@@H]4C[C@H](O)CC[C@]4(C)[C@H]3CC[C@]12C [chenodeoxycholic acid]	Selective inhibitor	No Inhibition	–	–	–	–	–	11β-HSD2 Dehydrogenase [6]: No Inhibition
C[C@]12CC[C@@H](O)C[C@H]1CC[C@@H]1[C@@H]2[C@@H](O)C[C@]2(C)C(=O)CC[C@@H]12 [11β-OH-etiocholanolone]	–	–	–	–	–	–	–	IC50 [3, 13]: > 100 µM; IC50 [4, 14]: > 100 µM
C[C@]12CC[C@@H](O)C[C@H]1CC[C@@H]1[C@H]2[C@@H](O)C[C@]2(C)C(=O)CC[C@H]12 [3α,5β-reduced- 11β-OH- androstenedione]	Moderate Inhibitor	No Inhibition	–	–	–	–	–	11β-HSD2 Dehydrogenase [6]: Potent Inhibitor (Non-Selective)
C[C@]12CC[C@@H](O)C[C@H]1CC[C@@H]1[C@@H]2[C@@H](O)C[C@]2(C)[C@@H](C(=O)CO)CC[C@@H]12 [3α,5β-TH-Corticosterone, 5β-Pregnan-3α,11β,21-triol-20-one]	–	–	> 100	inactive	> 100	inactive	> 10	Dehydrogenase [S] = 50 nM [5, 11]: inactive
C[C@]12CC[C@H](O)C[C@@H]1CC[C@H]1[C@@H]3CC[C@H](O)[C@@]3(C)CC(=O)[C@@H]12 [11 -Keto-3β,5α-TH-Testosterone]	–	–	–	–	–	–	–	Leydig Cell 11β-HSDl Dehydrogenase [S] = 600 nM ([3]; rat Leydig cell homogenates, 600 nM corticosterone, progesterone and androgen derivatives): weak inhibitor; IC50 [3, 13]: 50 µM; IC50 [4, 14]: 0.65 µM; inhibitors of 11β-HSD1 reductase (summary in words) ([4]; listed as 11-Keto-3β,5α-TH-Testosterone): potent inhibitors; inhibitors of 11β-HSD1 reductase (summary in words) ([4]; listed as 11-keto-3β,5α-TH-testosterone): high potency; IC50 ([5]; sheep kidney microsomes, corticosterone substrate, progesterone and androgen derivatives, read-out: Sheep kidney 11β-HSD2 [S] = 50 nM): 8 µM
C[C@]12CC[C@@H](O)C[C@H]1CC[C@@H]1[C@@H]2C(=O)C[C@]2(C)C(=O)CC[C@@H]12 [11 -Keto-etiocholanolone]	–	–	–	–	–	–	–	IC50 [3, 13]: > 100 µM; IC50 [4, 14]: > 100 µM
C[C@]12CC[C@@H](O)C[C@H]1CC[C@@H]1[C@H]2C(=O)C[C@]2(C)C(=O)CC[C@@H]12 [11 -Keto-androsterone, 5α-Androstan-3a-ol-11,1 7-dione]	No Inhibition	Selective Inhibitor	> 100	–	–	–	–	IC50 [3]: > 100 µM; IC50 [5]: > 10 µM
CC(=O)[C@H]1CC[C@H]2[C@@H]3CC[C@@H]4C[C@H](O)CC[C@]4(C)[C@H]3[C@@H](O)C[C@]12C [11β-OH-pregnanolone, 5β-Pregnan-3α,11β-diol-20-one]	–	–	80	–	–	–	–	IC50 [3]: 30 µM; IC50 [5]: > 10 µM; Sheep kidney 11β-HSD2 [S] = 50 nM ([5]; sheep kidney microsomes, corticosterone substrate, progesterone and androgen derivatives): inactive
C[C@]12CC[C@@H](O)C[C@@H]1CC[C@@H]1[C@@H]2C(=O)C[C@@]2(C)[C@H]1CC[C@]2(O)C(=O)CO [3α,5α-TH- Cortisone, 5α-Pregnan-3α,17α,21-triol-11,20-dione]	–	–	4.3	–	> 100	–	–	–
C[C@]12CC[C@@H](O)C[C@H]1CC[C@@H]1[C@@H]2[C@@H](O)C[C@@]2(C)[C@H]1CC[C@]2(O)C(=O)CO [3α,5β-TH-Cortisol, 5β-Pregnan-3α,11β,17α,21-tetrol-20-one]	–	–	> 100	inactive	> 100	inactive	> 10	Dehydrogenase [S] = 50 nM [5, 11]: inactive
